Assay results: the NIST ThermoML archive (doi:10.1021/je700670k)

Settings: Liquid, Vibrating tube method

CCC[N+]1(C)CCCC1.O=S(=O)([N-]S(=O)(=O)C(F)(F)F)C(F)(F)F
mass density [kg/m3]
Settings | 293.15 K | 303.15 K | 313.15 K | 323.15 K | 333.15 K | 353.15 K | 393.15 K
100 kPa | 1438.6 | 1428.6 | 1418.6 | 1408.7 | 1399 | 1380 | 1343.2
1000 kPa | 1439.3 | 1429.3 | 1419.3 | 1409.4 | 1399.7 | 1380.8 | 1344
2000 kPa | 1440 | 1430 | 1420.1 | 1410.1 | 1400.5 | 1381.7 | 1344.9
3000 kPa | 1440.7 | 1430.8 | 1420.9 | 1411 | 1401.4 | 1382.5 | 1345.8
4000 kPa | 1441.4 | 1431.6 | 1421.7 | 1411.8 | 1402.2 | 1383.4 | 1346.8
5000 kPa | 1442.1 | 1432.2 | 1422.5 | 1412.6 | 1403 | 1384.3 | 1347.8
7500 kPa | 1444 | 1434.1 | 1424.3 | 1414.4 | 1405 | 1386.4 | 1350.2
10000 kPa | 1445.8 | 1435.9 | 1426.3 | 1416.3 | 1407 | 1388.5 | 1352.5
15000 kPa | 1449.2 | 1439.4 | 1429.9 | 1420.1 | 1410.8 | 1392.6 | 1357.1
20000 kPa | 1452.6 | 1443 | 1433.4 | 1423.8 | 1414.6 | 1396.6 | 1361.5
25000 kPa | 1456 | 1446.4 | 1436.9 | 1427.4 | 1418.3 | 1400.4 | 1365.8
30000 kPa | 1459.2 | 1449.7 | 1440.3 | 1431 | 1421.9 | 1404.2 | 1370
35000 kPa | 1462.3 | 1453 | 1443.6 | 1434.4 | 1425.4 | 1407.9 | 1374

CCn1cc[n+](C)c1.O=S(=O)([O-])C(F)(F)F [1-ethyl-3-methylimidazolium trifluoromethanesulfonate]
mass density [kg/m3]
Settings | 293.15 K | 303.15 K | 313.15 K | 323.15 K | 333.15 K | 353.15 K | 393.15 K
100 kPa | 1379.6 | 1370.2 | 1361.1 | 1352 | 1342.8 | 1325.3 | 1291.1
1000 kPa | 1380 | 1370.7 | 1361.6 | 1352.5 | 1343.3 | 1325.9 | 1291.7
2000 kPa | 1380.6 | 1371.5 | 1362.2 | 1353.2 | 1344 | 1326.6 | 1292.4
3000 kPa | 1381.1 | 1372.1 | 1362.9 | 1353.8 | 1344.6 | 1327.2 | 1293.2
4000 kPa | 1381.8 | 1372.7 | 1363.5 | 1354.4 | 1345.3 | 1327.9 | 1293.9
5000 kPa | 1382.5 | 1373.2 | 1364.1 | 1355.1 | 1346 | 1328.6 | 1294.5
7500 kPa | 1383.9 | 1374.6 | 1365.7 | 1356.7 | 1347.6 | 1330.3 | 1296.4
10000 kPa | 1385.4 | 1376.1 | 1367.3 | 1358.2 | 1349.2 | 1332 | 1298.1
15000 kPa | 1388.2 | 1379 | 1370.2 | 1361.2 | 1352.3 | 1335.3 | 1302
20000 kPa | 1391 | 1381.9 | 1373.1 | 1364.2 | 1355.4 | 1338.5 | 1305.2
25000 kPa | 1393.7 | 1384.7 | 1376 | 1367.2 | 1358.4 | 1341.9 | 1308.7
30000 kPa | 1396.4 | 1387.5 | 1378.8 | 1370.1 | 1361.4 | 1344.8 | 1312
35000 kPa | 1399.1 | 1390.2 | 1381.6 | 1372.9 | 1364.3 | 1347.8 | 1315.3

CCCC[N+]1(C)CCCC1.O=S(=O)([N-]S(=O)(=O)C(F)(F)F)C(F)(F)F
mass density [kg/m3]
Settings | 293.15 K | 303.15 K | 313.15 K | 323.15 K | 333.15 K | 353.15 K | 393.15 K
100 kPa | 1409.1 | 1399.3 | 1389.5 | 1379.8 | 1370.2 | 1351.5 | 1315.2
1000 kPa | 1409.7 | 1399.9 | 1390.1 | 1380.4 | 1370.9 | 1352.3 | 1316.1
2000 kPa | 1410.5 | 1400.7 | 1390.9 | 1381.2 | 1371.7 | 1353.2 | 1317.1
3000 kPa | 1411.2 | 1401.4 | 1391.7 | 1382 | 1372.5 | 1354.1 | 1318.1
4000 kPa | 1411.9 | 1402.2 | 1392.5 | 1382.8 | 1373.4 | 1354.9 | 1319.1
5000 kPa | 1412.6 | 1402.9 | 1393.3 | 1383.6 | 1374.2 | 1355.8 | 1320
7500 kPa | 1414.4 | 1404.8 | 1395.2 | 1385.6 | 1376.1 | 1357.9 | 1322.5
10000 kPa | 1416.1 | 1406.6 | 1397 | 1387.5 | 1378.1 | 1360 | 1324.8
15000 kPa | 1419.6 | 1410.1 | 1400.7 | 1391.3 | 1382 | 1364.1 | 1329.5
20000 kPa | 1423 | 1413.6 | 1404.3 | 1394.9 | 1385.8 | 1368.1 | 1333.7
25000 kPa | 1426.3 | 1417 | 1407.7 | 1398.5 | 1389.5 | 1371.9 | 1338
30000 kPa | 1429.6 | 1420.3 | 1411.1 | 1402 | 1393.1 | 1375.7 | 1342.2
35000 kPa | 1432.8 | 1423.6 | 1414.4 | 1405.4 | 1396.6 | 1379.4 | 1346.2
